According to patent US9169259B2, “Imidazopyridazine compounds” (Hoffmann-La Roche Inc., priority 2011, dated 2015):
Structures can show the parent of a compound that is named as a salt.

Molecular target: recombinant human SYK360-635 (Homo sapiens (Human), UniProt P43405)
Assay: SYK kinase assay (33P ATP filtration, IC50 of SYK inhibition)
Type: biochemical
Conditions: truncated SYK aa 360-635 0.5 nM, ATP 20 μM, peptide 5 μM, 30° C. 15 min; read-out: ENZYME_FILTRATION_IC50
Experimental: Determination of IC50 of Spleen Tyrosine Kinase (SYK) Inhibition:
SYK kinase assay is a standard kinase assay adapted to a 96 well plate format. This assay is performed in 96-well format for IC50 determination with […] which represented 10 half log dilutions and a 40 μL reaction volume. The assay measures the incorporation of radiolabeled ^33P γATP into an N-terminally biotinylated peptide substrate, derived from naturally occurring phosphoacceptor consensus sequence (Biotin-11aa DY*E). Phosphorylated products were detected upon termination of reactions with EDTA and the addition of Streptavidin coated beads.
Assay plates: 96-well MultiScreen 0.65 um filter plates (Millipore Cat. No.: MADVNOB10)
final concentration: 50 mM HEPES pH7.5
BSA: Bovine Serum Albumin Fraction V, fatty acid free (Roche Diagnostics GmbH, Cat. No. 9100221) diluted to a final concentration of 0.1%
Assay Dilution Buffer (ADB): 50 mM HEPES, 0.1 mM EGTA, 0.1 mM Na Vanadate, 0.1 mM β-glycerophosphate, 10 mM MgCl2, 1 mM DTT, 0.1% BSA, pH 7.5
Bead wash buffer: 10 g/L PBS (Phosphate buffered saline) with 2M NaCl+1% phosphoric acid.
DMSO and the mixture was incubated for 10 min at RT.
The kinase reaction was initiated by the addition of 10 μL 4× substrate cocktail containing the DYE peptide substrate [0 or 5 μM], ATP [20 μM] and ^33PγATP [2 μCi/r×n]. After incubation at 30° C. for 15 min, the reaction was terminated by the transfer of 25 μL of the reaction sample to a 96 well 0.65 μm Millipore MADVNOB membrane/plate containing 200 μL 5 mM EDTA and 20% Streptavidine coated beads in PBS.
After the last wash membrane/plates were transferred to an adaptor plate, heat dried for 15 min at 60° C., and 50 μL scintillation cocktail was added to each well and 4 h later the amount of radioactivity was counted in a top counter.

| Compound | IC50 [nM] |
| --- | --- |
| CCc1ccc(Nc2cc(-c3ccccc3)nn3ccnc23)nc1 [Example I-2, (5-Ethyl-pyridin-2-yl)-(6-phenyl-imidazo[1,2-b]pyridazin-8-yl)-amine] | 186 |
| COc1cncc(-c2cc(Nc3cccc(N4CCCC4C)n3)c3nccn3n2)c1 (centres unmarked) [Example I-82, [6-(5-Methoxy-pyridin-3-yl)-imidazo[1,2-b]pyridazin-8-yl]-[6-(2-methyl-pyrrolidin-1-yl)-pyridin-2-yl]-amine] | 59.9 |
| CC1CCCN1c1cccc(Nc2cc(-c3ccc4cn[nH]c4c3)nn3ccnc23)n1 (centres unmarked) [Example I-19, [6-(1H-Indazol-6-yl)-imidazo[1,2-b]pyridazin-8-yl]-[6-(2-methyl-pyrrolidin-1-yl)-pyridin-2-yl]-amine] | 75 |
| CC1(C)CCN(c2cccc(Nc3cc(-c4cccc(C(=O)O)c4)nn4ccnc34)n2)CC1 [Example I-61, 3-[8-(4,4-Dimethyl-3,4,5,6-tetrahydro-2H-[1,2′]bipyridinyl-6′-ylamino)-imidazo[1,2-b]pyridazin-6-yl]-benzoic acid] | 1380 |
| CC1CCCN1c1cccc(Nc2cc(-c3cccc(C(=O)NCCN(C)C)c3)nn3ccnc23)n1 (centres unmarked) [Example I-46, N-(2-Dimethylamino-ethyl)-3-{8-[6-(2-methyl-pyrrolidin-1-yl)-pyridin-2-ylamino]-imidazo[1,2-b]pyridazin-6-yl}-benzamide] | 141 |
| O=C(O)c1cccc(-c2cc(Nc3cccc(N4CCCC4)n3)c3nccn3n2)c1 [Example I-22, 3-[8-(6-Pyrrolidin-1-yl-pyridin-2-ylamino)-imidazo[1,2-b]pyridazin-6-yl]-benzoic acid hydrochloride] | 434 |
| COC(=O)c1cccc(-c2cc(Nc3cccc(N4CCC(C(C)(C)C)C4)n3)c3nccn3n2)c1 (centres unmarked) [Example I-65, 3-{8-[6-(3-tert-Butyl-pyrrolidin-1-yl)-pyridin-2-ylamino]-imidazo[1,2-b]pyridazin-6-yl}-benzoic acid methyl ester] | 1260 |
| CC(CO)NC(=O)c1cccc(-c2cc(Nc3cccc(N4CCCC4C)n3)c3nccn3n2)c1 (centres unmarked) [Example I-41, N-(2-Hydroxy-1-methyl-ethyl)-3-{8-[6-(2-methyl-pyrrolidin-1-yl)-pyridin-2-ylamino]-imidazo[1,2-b]pyridazin-6-yl}-benzamide] | 130 |
| CC1CCCN1c1cccc(Nc2cc(-c3cccnc3)nn3ccnc23)n1 (centres unmarked) [Example I-78, [6-(2-Methyl-pyrrolidin-1-yl)-pyridin-2-yl]-(6-pyridin-3-yl-imidazo[1,2-b]pyridazin-8-yl)-amine] | 65.2 |
| CC(C)(C)C1CCN(c2cccc(Nc3cc(-c4cccc(C(N)=O)c4)nn4ccnc34)n2)C1 (centres unmarked) [Example I-67, 3-{8-[6-(3-tert-Butyl-pyrrolidin-1-yl)-pyridin-2-ylamino]-imidazo[1,2-b]pyridazin-6-yl}-benzamide] | 280 |
| CC1CCCN1c1cccc(Nc2cc(-c3ccc4[nH]ncc4c3)nn3ccnc23)n1 (centres unmarked) [Example I-37, [6-(1H-Indazol-5-yl)-imidazo[1,2-b]pyridazin-8-yl]-[6-(2-methyl-pyrrolidin-1-yl)-pyridin-2-yl]-amine] | 98.1 |
| FC(F)(F)c1cccc(Nc2cc(-c3ccccc3)nn3ccnc23)n1 [Example I-1, (6-Phenyl-imidazo[1,2-b]pyridazin-8-yl)-(6-trifluoromethyl-pyridin-2-yl)-amine] | > 10000 |
| CC1CCCN1c1cccc(Nc2cc(-c3ccccc3C(F)(F)F)nn3ccnc23)n1 (centres unmarked) [Example I-48, [6-(2-Methyl-pyrrolidin-1-yl)-pyridin-2-yl]-[6-(2-trifluoromethyl-phenyl)-imidazo[1,2-b]pyridazin-8-yl]-amine hydrochloride] | 410 |
| CC1CCCN1c1cccc(Nc2cc(-c3cccc(OCCN4CCCCC4)c3)nn3ccnc23)n1 (centres unmarked) [Example I-87, [6-(2-Methyl-pyrrolidin-1-yl)-pyridin-2-yl]-{6-[3-(2-piperidin-1-yl-ethoxy)-phenyl]-imidazo[1,2-b]pyridazin-8-yl}-amine] | 210 |
| CC1CCCN1c1cccc(Nc2cc(-c3cccc(C(=O)NCCO)c3)nn3ccnc23)n1 (centres unmarked) [Example I-40, N-(2-Hydroxy-ethyl)-3-{8-[6-(2-methyl-pyrrolidin-1-yl)-pyridin-2-ylamino]-imidazo[1,2-b]pyridazin-6-yl}-benzamide] | 42.5 |
| CC1CCCN1c1cccc(Nc2cc(-c3cccc(O)c3)nn3ccnc23)n1 (centres unmarked) [Example I-86, 3-{8-[6-(2-Methyl-pyrrolidin-1-yl)-pyridin-2-ylamino]-imidazo[1,2-b]pyridazin-6-yl}-phenol] | 102 |
| CC1CCCN1c1cccc(Nc2cc(-c3ccc(C(C)(C)C)cc3)nn3ccnc23)n1 (centres unmarked) [Example I-85, [6-(4-tert-Butyl-phenyl)-imidazo[1,2-b]pyridazin-8-yl]-[6-(2-methyl-pyrrolidin-1-yl)-pyridin-2-yl]-amine] | 610 |

The remaining lines, values ahead:

| IC50 [nM] | Compound |
| --- | --- |
| 14.9 | COc1ccc(Nc2cc(N3CCCC(C(=O)Nc4ccc(C(=O)O)cc4)C3)nn3ccnc23)nc1OC (centres unmarked) [Example I-74, 4-({1-[8-(5,6-Dimethoxy-pyridin-2-ylamino)-imidazo[1,2-b]pyridazin-6-yl]-piperidine-3-carbonyl}-amino)-benzoic acid] |
| 63.9 | CC1CCCN1c1cccc(Nc2cc(-c3ccc(O)cc3)nn3ccnc23)n1 (centres unmarked) [Example I-77, 4-{8-[6-(2-Methyl-pyrrolidin-1-yl)-pyridin-2-ylamino]-imidazo[1,2-b]pyridazin-6-yl}-phenol] |
| 103 | CNC(=O)c1ccc(NC(=O)c2cccc(-c3cc(Nc4ccc(OC)c(OC)n4)c4nccn4n3)c2)cc1 [Example I-96, 3-(8-(5,6-Dimethoxypyridin-2-ylamino)imidazo[1,2-b]pyridazin-6-yl)-N-(4-(methylcarbamoyl)phenyl)benzamide] |
| 84.2 | CC1CCCN1c1cccc(Nc2cc(-c3ccc(C(=O)O)cc3)nn3ccnc23)n1 (centres unmarked) [Example I-15, 4-{8-[6-(2-Methyl-pyrrolidin-1-yl)-pyridin-2-ylamino]-imidazo[1,2-b]pyridazin-6-yl}-benzoic acid] |
| 949 | COc1ccc(Nc2cc(-c3cccc(C(=O)O)c3)nn3ccnc23)nc1OC [Example I-95, 3-[8-(5,6-Dimethoxy-pyridin-2-ylamino)-imidazo[1,2-b]pyridazin-6-yl]-benzoic acid] |
| 231 | CC1CCC(C)N1c1cccc(Nc2cc(-c3cccc(C(=O)O)c3)nn3ccnc23)n1 (centres unmarked) [Example I-60, 3-{8-[6-(2,5-Dimethyl-pyrrolidin-1-yl)-pyridin-2-ylamino]-imidazo[1,2-b]pyridazin-6-yl}-benzoic acid] |
| 1.55 | COc1cc(NC(=O)c2cccc(-c3cc(Nc4ccc(OC)c(OC)n4)c4nccn4n3)c2)ccc1C(=O)O [Example I-57, 4-{3-[8-(5,6-Dimethoxy-pyridin-2-ylamino)-imidazo[1,2-b]pyridazin-6-yl]-benzoylamino}-2-methoxy-benzoic acid] |
| 265 | COc1ccc(Nc2cc(-c3ccc(C(=O)O)cc3)nn3ccnc23)nc1OC [Example I-26, 4-[8-(5,6-Dimethoxy-pyridin-2-ylamino)-imidazo[1,2-b]pyridazin-6-yl]-benzoic acid] |
| 461 | COc1ccc(Nc2cc(N3CCC(C(=O)Nc4ccc(C(=O)O)cc4)C3)nn3ccnc23)nc1OC (centres unmarked) [Example I-75, 4-({1-[8-(5,6-Dimethoxy-pyridin-2-ylamino)-imidazo[1,2-b]pyridazin-6-yl]-pyrrolidine-3-carbonyl}-amino)-benzoic acid] |
